Reference: patent US8476264B2, “N-(3-(2-amino-6,6-difluoro-4,4A,5,6,7,7A-hexahydro-cyclopenta[E][1,3]oxazin-4-yl)-phenylamides as BACE1 inhibitors” (Hoffmann-La Roche Inc., priority 2011, dated 2013)

These compounds were tested against T1, BACE1 (Homo sapiens, UniProt P56817) (assay: Cellular Aβ-lowering assay (Aβ40 ELISA)). Details: HEK293 cells stably expressing human APP wt (APP695); Aβ40 in supernatant after 18-20 hrs; read-out: BACE1 cell act. Aβ40 IC50.
T1 construct: Human HEK293 cells which are stably transfected with a vector expressing a cDNA of the human APP wt gene (APP695); endogenous in cells; host or cells: HEK293 stably transfected with human APP695 wt
T1 sequence (P56817 46-501): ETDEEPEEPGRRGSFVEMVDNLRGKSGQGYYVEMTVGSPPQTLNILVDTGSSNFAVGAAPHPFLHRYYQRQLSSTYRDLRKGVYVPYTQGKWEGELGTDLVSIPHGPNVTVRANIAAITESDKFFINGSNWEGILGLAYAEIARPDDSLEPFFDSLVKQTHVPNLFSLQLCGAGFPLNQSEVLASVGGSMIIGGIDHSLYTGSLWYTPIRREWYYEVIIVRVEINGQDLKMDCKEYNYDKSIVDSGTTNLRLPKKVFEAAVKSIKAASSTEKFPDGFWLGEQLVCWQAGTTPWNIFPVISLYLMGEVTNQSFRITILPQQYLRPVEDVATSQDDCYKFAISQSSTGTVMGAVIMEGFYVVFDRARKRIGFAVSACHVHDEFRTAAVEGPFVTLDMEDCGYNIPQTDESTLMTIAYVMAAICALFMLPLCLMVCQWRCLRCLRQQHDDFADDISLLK
Format: cell-based
Method: Cellular Aβ-Lowering Assay:
Human HEK293 cells which are stably transfected with a vector expressing a cDNA of the human APP wt gene (APP695) were used to assess the potency of the compounds in a cellular assay. The cells were seeded in 96-well microtiter plates in cell culture medium (Iscove, plus 10% (v/v) fetal bovine serum, glutamine, penicillin/streptomycin) to about 80% confluence and the compounds were added at a 10× concentration in 1/10 volume of medium without FCS containing 8% DMSO (final concentration of DMSO was kept at 0.8% v/v). After 18-20 hrs incubation at 37° C. and 5% CO2 in a humidified incubator the culture supernatant was harvested for the determination of Aβ40 concentrations. 96 well ELISA plates (e.g., Nunc MaxiSorb) were coated with monoclonal antibody which specifically recognize the C-terminal end of Aβ40 (Brockhaus et al., NeuroReport 9, 1481-1486; 1998). After blocking of non-specific binding sites with e.g. 1% BSA and washing, the culture supernatants were added in suitable dilutions together with a horseradish peroxidase-coupled Aβ detection antibody (e.g., antibody 4G8, Senetek, Maryland Heights, Mo.) and incubated for 5 to 7 hrs. Subsequently the wells of the microtiter plate were washed extensively with Tris-buffered saline containing 0.05% Tween 20 and the assay was developed with tetramethylbenzidine/H2O2 in citric acid buffer. After stopping the reaction with one volume 1 N H2SO4 the reaction was measured in an ELISA reader at 450 nm wavelength. The concentrations of Aβ in the culture supernatants were calculated from a standard curve obtained with known amounts of pure Aβ peptide.
In the case of NC1=N[C@](CF)(c2cc(NC(=O)c3cnc(OCF)cn3)ccc2F)[C@H]2CC(F)(F)C[C@H]2O1 [Example 26, 5-Fluoromethoxy-pyrazine-2-carboxylic acid [(S)-3-((1R,2R)-2-amino-6,6-difluoro-4-fluoromethyl-4,4a,5,6,7,7a-hexahydro-cyclopenta[e][1,3]oxazin-4-yl)-4-fluoro-phenyl]-amide], the IC50 is reported as 0.0035 µM.
NC1=N[C@](CF)(c2cc(NC(=O)c3ccc(OC(F)F)cn3)ccc2F)[C@H]2CC(F)(F)C[C@H]2O1 [Example 13, 5-Difluoromethoxy-pyridine-2-carboxylic acid [(S)-3-((1R,2R)-2-amino-6,6-difluoro-4-fluoromethyl-4,4a,5,6,7,7a-hexahydro-cyclopenta[e][1,3]oxazin-4-yl)-4-fluoro-phenyl]-amide] showed an IC50 of 0.0035 µM.
In the case of Cc1nc(C(=O)Nc2ccc(F)c([C@@]3(CF)N=C(N)O[C@@H]4CC(F)(F)C[C@@H]43)c2)co1 [Example 33, 2-Methyl-oxazole-4-carboxylic acid [(S)-3-((1R,2R)-2-amino-6,6-difluoro-4-fluoromethyl-4,4a,5,6,7,7a-hexahydro-cyclopenta[e][1,3]oxazin-4-yl)-4-fluoro-phenyl]-amide], the IC50 is reported as 0.0048 µM.
Compound NC1=N[C@](CF)(c2cc(NC(=O)c3cnc(C(F)(F)F)cn3)ccc2F)[C@H]2CC(F)(F)C[C@H]2O1 [Example 28, 5-Trifluoromethyl-pyrazine-2-carboxylic acid [(S)-3-((1R,2R)-2-amino-6,6-difluoro-4-fluoromethyl-4,4a,5,6,7,7a-hexahydro-cyclopenta[e][1,3]oxazin-4-yl)-4-fluoro-phenyl]-amide] has an IC50 of 0.016 µM.
Compound NC1=N[C@](CF)(c2cc(NC(=O)c3ccc(OCC(F)F)cn3)ccc2F)[C@H]2CC(F)(F)C[C@H]2O1 [Example 14, 5-(2,2-Difluoro-ethoxy)-pyridine-2-carboxylic acid [(S)-3-((1R,2R)-2-amino-6,6-difluoro-4-fluoromethyl-4,4a,5,6,7,7a-hexahydro-cyclopenta[e][1,3]oxazin-4-yl)-4-fluoro-phenyl]-amide] has an IC50 of 0.023 µM.
In the case of NC1=N[C@](CF)(c2cc(NC(=O)c3ncc(C(F)(F)F)cn3)ccc2F)[C@H]2CC(F)(F)C[C@H]2O1 [Example 31, 5-Trifluoromethyl-pyrimidine-2-carboxylic acid [(S)-3-((1R,2R)-2-amino-6,6-difluoro-4-fluoromethyl-4,4a,5,6,7,7a-hexahydro-cyclopenta[e][1,3]oxazin-4-yl)-4-fluoro-phenyl]-amide], the IC50 is reported as 0.036 µM.
NC1=N[C@](CF)(c2cc(NC(=O)c3nn(C(F)F)cc3Cl)ccc2F)[C@H]2CC(F)(F)C[C@H]2O1 [Example 35, 4-Chloro-1-difluoromethyl-1H-pyrazole-3-carboxylic acid [(S)-3-((1R,2R)-2-amino-6,6-difluoro-4-fluoromethyl-4,4a,5,6,7,7a-hexahydro-cyclopenta[e][1,3]oxazin-4-yl)-4-fluoro-phenyl]-amide] gave an IC50 of 0.003 µM.
NC1=N[C@](CF)(c2cc(NC(=O)c3ncc(C(F)(F)F)cc3F)ccc2F)[C@H]2CC(F)(F)C[C@H]2O1 [Example 17, 3-Fluoro-5-trifluoromethyl-pyridine-2-carboxylic acid [(S)-3-((1R,2R)-2-amino-6,6-difluoro-4-fluoromethyl-4,4a,5,6,7,7a-hexahydro-cyclopenta[e][1,3]oxazin-4-yl)-4-fluoro-phenyl]-amide] was tested, and the IC50 was 0.0041 µM.
Work on NC1=N[C@@](c2cc(NC(=O)c3cnc(Cl)cn3)ccc2F)(C(F)F)[C@H]2CC(F)(F)C[C@H]2O1 [Example 39, 5-Chloro-pyrazine-2-carboxylic acid [(S)-3-((1R,2R)-2-amino-4-difluoromethyl-6,6-difluoro-4,4a,5,6,7,7a-hexahydro-cyclopenta[e][1,3]oxazin-4-yl)-4-fluoro-phenyl]-amide] yielded an IC50 of 1.4 µM.
For NC1=N[C@](CF)(c2cc(NC(=O)c3ncc(Cl)cn3)ccc2F)[C@H]2CC(F)(F)C[C@H]2O1 [Example 32, 5-Chloro-pyrimidine-2-carboxylic acid [(S)-3-((1R,2R)-2-amino-6,6-difluoro-4-fluoromethyl-4,4a,5,6,7,7a-hexahydro-cyclopenta[e][1,3]oxazin-4-yl)-4-fluoro-phenyl]-amide], the IC50 was 0.0079 µM.
NC1=N[C@](CF)(c2cc(NC(=O)c3ccc(OCC(F)(F)C(F)(F)F)cn3)ccc2F)[C@H]2CC(F)(F)C[C@H]2O1 [Example 10, 5-(2,2,3,3,3-Pentafluoro-propoxy)-pyridine-2-carboxylic acid [(S)-3-((1R,2R)-2-amino-6,6-difluoro-4-fluoromethyl-4,4a,5,6,7,7a-hexahydro-cyclopenta[e][1,3]oxazin-4-yl)-4-fluoro-phenyl]-amide] gave an IC50 of 0.043 µM.
NC1=N[C@@](c2cc(NC(=O)c3ccc(Cl)cn3)ccc2F)(C(F)F)[C@H]2CC(F)(F)C[C@H]2O1 [Example 37, 5-Chloro-pyridine-2-carboxylic acid [(S)-3-((1R,2R)-2-amino-4-difluoromethyl-6,6-difluoro-4,4a,5,6,7,7a-hexahydro-cyclopenta[e][1,3]oxazin-4-yl)-4-fluoro-phenyl]-amide] was tested, and the IC50 was 0.017 µM.
Cc1nc(C(=O)Nc2ccc(F)c([C@@]3(C(F)F)N=C(N)O[C@@H]4CC(F)(F)C[C@@H]43)c2)co1 [Example 44, 2-Methyl-oxazole-4-carboxylic acid [(S)-3-((1R,2R)-2-amino-4-difluoromethyl-6,6-difluoro-4,4a,5,6,7,7a-hexahydro-cyclopenta[e][1,3]oxazin-4-yl)-4-fluoro-phenyl]-amide] was tested, and the IC50 was 0.042 µM.
NC1=N[C@](CF)(c2cc(NC(=O)c3cnc(OCC(F)(F)F)cn3)ccc2F)[C@H]2CC(F)(F)C[C@H]2O1 [Example 22, 5-(2,2,2-Trifluoro-ethoxy)-pyrazine-2-carboxylic acid [(S)-3-((1R,2R)-2-amino-6,6-difluoro-4-fluoromethyl-4,4a,5,6,7,7a-hexahydro-cyclopenta[e][1,3]oxazin-4-yl)-4-fluoro-phenyl]-amide] was tested, and the IC50 was 0.0025 µM.
For CC(F)(F)c1cnc(C(=O)Nc2ccc(F)c([C@@]3(CF)N=C(N)O[C@@H]4CC(F)(F)C[C@@H]43)c2)cn1 [Example 29, 5-(1,1-Difluoro-ethyl)-pyrazine-2-carboxylic acid [(S)-3-((1R,2R)-2-amino-6,6-difluoro-4-fluoromethyl-4,4a,5,6,7,7a-hexahydro-cyclopenta[e][1,3]oxazin-4-yl)-4-fluoro-phenyl]-amide], the IC50 was 0.036 µM.
In the case of N#Cc1ccc(C(=O)Nc2ccc(F)c([C@]3(CF)N=C(N)O[C@@]4(CF)CC(F)(F)C[C@H]43)c2)nc1 [Example 45, 5-Cyano-pyridine-2-carboxylic acid [3-((1S,7aS)-2-(R)-amino-6,6-difluoro-4,7a-bis-fluoromethyl-4,4a,5,6,7,7a-hexahydro-cyclopenta[e][1,3]oxazin-4-yl)-4-fluoro-phenyl]-amide], the IC50 is reported as 11.1 µM.
